Drawing on ChEMBL document CHEMBL1140511, “Synthesis of (aryloxyacetylamino)-isonicotinic/nicotinic acid analogues as potent hypoxia-inducible factor (HIF)-1alpha inhibitors” (Bioorg Med Chem Lett, 2007), this text covers IC50 and Activity for 15 compounds.

The IC50 is the concentration at which inhibition is half-maximal. Low readings indicate higher potency, high ones lower potency.

Experiment [1] addresses T1, Hypoxia-inducible factor 1-alpha (Homo sapiens, UniProt Q16665). As to the kind of experiment: Inhibition of hypoxia induced HIF1-alpha transcriptional activity in human Hep3B cells by reporter gene assay. The class given is cell-based. Particulars: hep 3b2. (In general: A reporter such as luciferase makes a cellular process visible.)
Experiment [2] deals with T1, Hypoxia-inducible factor 1-alpha. As to the kind of experiment: Inhibition of hypoxia induced HIF1-alpha transcriptional activity in human AGS cells by reporter gene assay. The class given is cell-based.
Experiment [3] shares this target. The experiment is described as follows: Inhibition of hypoxia induced HIF1-alpha transcriptional activity in human Sk-Hep1 cells by reporter gene assay. The class given is cell-based.
A short description of experiment [4]: Suppression of hypoxia induced VEGF expression in human Hep3B cells by RT-PCR. It counts as functional, cell-based. Particulars: Hep 3B2.
Experiment [5] in a line: Suppression of hypoxia induced EPO expression in human Hep3B cells by RT-PCR. It counts as functional, cell-based. To be noted: Hep 3B2.
Experiment [6] can be described thus: Suppression of hypoxia induced GAPDH mRNA expression in human Hep3B cells by RT-PCR. To be noted: Hep 3B2. The class given is functional, cell-based.
The nature of experiment [7]: Suppression of hypoxia induced HIF1-alpha mRNA expression in human Hep3B cells by RT-PCR. Particulars: Hep 3B2. It counts as functional, cell-based.

Active and inactive are the calls of the source. No cut-off for these calls is given here.

T1 sequence (Q16665 whole entry): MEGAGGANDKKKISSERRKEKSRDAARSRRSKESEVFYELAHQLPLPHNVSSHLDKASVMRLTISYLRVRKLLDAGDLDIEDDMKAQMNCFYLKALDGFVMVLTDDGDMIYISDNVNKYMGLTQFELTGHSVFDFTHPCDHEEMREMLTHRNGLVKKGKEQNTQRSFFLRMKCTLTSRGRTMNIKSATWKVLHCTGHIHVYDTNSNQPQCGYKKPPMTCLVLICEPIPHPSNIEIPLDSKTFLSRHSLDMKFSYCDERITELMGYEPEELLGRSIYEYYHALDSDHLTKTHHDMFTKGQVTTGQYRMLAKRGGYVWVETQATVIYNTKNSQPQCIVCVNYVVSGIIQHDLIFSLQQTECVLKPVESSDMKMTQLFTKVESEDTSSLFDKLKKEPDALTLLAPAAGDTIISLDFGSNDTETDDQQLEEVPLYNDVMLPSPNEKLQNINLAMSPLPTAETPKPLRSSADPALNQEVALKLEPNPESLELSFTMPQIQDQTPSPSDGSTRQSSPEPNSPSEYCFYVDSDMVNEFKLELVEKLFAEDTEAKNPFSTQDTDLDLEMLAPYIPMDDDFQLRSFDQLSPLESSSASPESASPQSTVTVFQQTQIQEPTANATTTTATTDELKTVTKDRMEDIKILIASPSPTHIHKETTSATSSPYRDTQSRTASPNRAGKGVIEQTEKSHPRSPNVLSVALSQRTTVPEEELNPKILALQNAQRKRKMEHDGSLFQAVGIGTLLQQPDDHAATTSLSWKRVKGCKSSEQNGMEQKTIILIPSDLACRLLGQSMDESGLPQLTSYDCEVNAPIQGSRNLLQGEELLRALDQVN

Turning to `O=C(COc1ccc(C23CC4CC(CC(C4)C2)C3)cc1)Nc1cccc(C(=O)O)c1`, the IC50 is 0.4 µM in experiment [1] and 0.35 µM in experiment [2].

`O=C(COc1ccc(C23CC4CC(CC(C4)C2)C3)cc1)Nc1cncc(C(=O)NCc2ccco2)c1`: the results for the IC50 in experiment [3], in experiment [1] and in experiment [2] were 4.1 µM, above 30 µM and 30 µM, respectively.

`O=C(COc1ccc(C23CC4CC(CC(C4)C2)C3)cc1)Nc1cncc(C(=O)NCCCn2ccnc2)c1`: the IC50 in experiment [3] was 1.9 µM; in experiment [1], above 10 µM; in experiment [2] it was above 10 µM.

On to `O=C(COc1ccc(C23CC4CC(CC(C4)C2)C3)cc1)Nc1cncc(C(=O)O)c1`, for which the IC50 in experiment [3], in experiment [1] and in experiment [2] was above 30 µM each time.

`COC(=O)c1cccc(NC(=O)COc2ccc(C34CC5CC(CC(C5)C3)C4)cc2)c1`: the results for the IC50 in experiment [1] and in experiment [2] were 2.6 µM and 0.7 µM, respectively.

`O=C(COc1ccc(C23CC4CC(CC(C4)C2)C3)cc1)Nc1cc(C(=O)NCCCn2ccnc2)ccn1`: the IC50 in experiment [3] stood at 0.9 µM; in experiment [1], 11.2 µM; in experiment [2], 11 µM.

For `O=C(COc1ccc(C23CC4CC(CC(C4)C2)C3)cc1)Nc1cc(C(=O)NCCc2ccncc2)ccn1`, the values for the IC50 in experiment [3], in experiment [1] and in experiment [2] were 3.4 µM, 3.4 µM and 5.2 µM, respectively.

On to `COC(=O)c1ccnc(NC(=O)COc2ccc(C34CC5CC(CC(C5)C3)C4)cc2)c1`, for which the values for the IC50 in experiment [3], in experiment [1] and in experiment [2] were 1.03 µM, 1.2 µM and 2 µM, respectively.

Turning to `O=C(COc1ccc(C23CC4CC(CC(C4)C2)C3)cc1)Nc1cc(C(=O)Nc2ccc(Cl)cc2)ccn1`, the IC50 in experiment [3] is 2.5 µM; in experiment [1], above 30 µM; in experiment [2], 18.6 µM.

Regarding `O=C(COc1ccc(C23CC4CC(CC(C4)C2)C3)cc1)Nc1cc(C(=O)NCc2ccco2)ccn1`, the IC50 in experiment [3], in experiment [1] and in experiment [2] was above 30 µM each time.

On to `O=C(COc1ccc(C23CC4CC(CC(C4)C2)C3)cc1)Nc1cc(C(=O)O)ccn1`, for which the IC50 in experiment [3] was found to be 2 µM; in experiment [1] it was 1 µM; in experiment [2], 0.8 µM.

In the case of `NC(=O)c1cncc(NC(=O)COc2ccc(C34CC5CC(CC(C5)C3)C4)cc2)c1`, the IC50 was 11.9 µM in experiment [3], above 10 µM in experiment [1] and 0.9 µM in experiment [2].

For `NC(=O)c1ccnc(NC(=O)COc2ccc(C34CC5CC(CC(C5)C3)C4)cc2)c1`, the IC50 in experiment [3] was 0.6 µM; in experiment [1], 3.1 µM; in experiment [2], 1.8 µM. Also, the Activity result in experiment [4] and in experiment [5] was “Dose-dependent effect” throughout. In addition, the outcome in experiment [6] and in experiment [7] was inactive.

With `O=C(COc1ccc(C23CC4CC(CC(C4)C2)C3)cc1)Nc1cncc(C(=O)NCCc2ccncc2)c1`, the IC50 is above 30 µM in experiment [3], above 30 µM in experiment [1] and 1.3 µM in experiment [2].

In the case of `COC(=O)c1cncc(NC(=O)COc2ccc(C34CC5CC(CC(C5)C3)C4)cc2)c1`, the figures for the IC50 in experiment [3], in experiment [1] and in experiment [2] were above 30 µM, 5.9 µM and 5 µM, respectively.
